Assay results published in PubChem BioAssay AID2060490 (Molecular Pharmacology Branch, DTP, NCI, 2025).
pIC50: −log10 of the molar value.

System: 885512-296-R-J2-PDC complex spheroid viability
Experiment: Anticancer human tumor 885512-296-R-J2-PDC patient-derived breast carcinoma cell line growth inhibition [GQUAD]
Details: for pIC50: curve of first compound; for viability, T/C: stronger effect = lower value
In short: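 Viability of tumor cells grown as complex spheroids with endothelial and stromal cells, exposed to drug combinations. Top concentration at or near clinical Cmax (else 10 microM), diluted in half-log increments.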

[1] = second compound 0.0316 µM, first compound 0.0316 µM
[2] = second compound 0.0316 µM, first compound 0.1 µM
[3] = second compound 0.0316 µM, first compound 0.316 µM
[4] = second compound 0.0316 µM, first compound 1 µM
[5] = second compound 0.0316 µM, first compound 3.16 µM
[6] = second compound 0.0316 µM, first compound 10 µM
[7] = second compound 0.1 µM, first compound 0.0316 µM
[8] = second compound 0.1 µM, first compound 0.1 µM
[9] = second compound 0.1 µM, first compound 0.316 µM
[10] = second compound 0.1 µM, first compound 1 µM
[11] = second compound 0.1 µM, first compound 3.16 µM
[12] = second compound 0.1 µM, first compound 10 µM
[13] = second compound 0.316 µM, first compound 0.0316 µM
[14] = second compound 0.316 µM, first compound 0.1 µM
[15] = second compound 0.316 µM, first compound 0.316 µM
[16] = second compound 0.316 µM, first compound 1 µM
[17] = second compound 0.316 µM, first compound 3.16 µM
[18] = second compound 0.316 µM, first compound 10 µM
[19] = second compound 1 µM, first compound 0.0316 µM
[20] = second compound 1 µM, first compound 0.1 µM
[21] = second compound 1 µM, first compound 0.316 µM
[22] = second compound 1 µM, first compound 1 µM
[23] = second compound 1 µM, first compound 3.16 µM
[24] = second compound 1 µM, first compound 10 µM
[25] = second compound 3.16 µM, first compound 0.0316 µM
[26] = second compound 3.16 µM, first compound 0.1 µM
[27] = second compound 3.16 µM, first compound 0.316 µM
[28] = second compound 3.16 µM, first compound 1 µM
[29] = second compound 3.16 µM, first compound 3.16 µM
[30] = second compound 3.16 µM, first compound 10 µM
[31] = second compound 10 µM, first compound 0.0316 µM
[32] = second compound 10 µM, first compound 0.1 µM
[33] = second compound 10 µM, first compound 0.316 µM
[34] = second compound 10 µM, first compound 1 µM
[35] = second compound 10 µM, first compound 3.16 µM
[36] = second compound 10 µM, first compound 10 µM
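Also: spheroids exposed to the compounds for one week.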
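For viability, T/C in this document: percent of tumor spheroid viability relative to DMSO vehicle control wells.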

SMILES: COc1ncnc(C2CC2)c1-c1ncc2cnn(Cc3ccc(-c4nc(C(F)(F)F)cn4C(C)C)cc3)c2n1 + Cc1[nH]c2ccc(F)cc2c1-c1nc2c3cccnc3c3ncccc3c2[nH]1
- pIC50 (second compound 0.0316 µM): 6.02
- pIC50 (second compound 0.1 µM): 6.18
- pIC50 (second compound 0.316 µM): 6.25
- pIC50 (second compound 1 µM): 7.03
- pIC50 (second compound 3.16 µM): > 7.50
- pIC50 (second compound 10 µM): > 7.50
- viability, T/C [1]: 89.9%
- viability, T/C [2]: 82.6%
- viability, T/C [3]: 64.5%
- viability, T/C [4]: 52.1%
- viability, T/C [5]: 25.1%
- viability, T/C [6]: 2.97%
- viability, T/C [7]: 104%
- viability, T/C [8]: 83.5%
- viability, T/C [9]: 66.7%
- viability, T/C [10]: 38.7%
- viability, T/C [11]: 23.7%
- viability, T/C [12]: 2.95%
- viability, T/C [13]: 88.5%
- viability, T/C [14]: 78.3%
- viability, T/C [15]: 60.5%
- viability, T/C [16]: 34.5%
- viability, T/C [17]: 27.8%
- viability, T/C [18]: 2.76%
- viability, T/C [19]: 59.2%
- viability, T/C [20]: 49.4%
- viability, T/C [21]: 37.4%
- viability, T/C [22]: 28.5%
- viability, T/C [23]: 25.1%
- viability, T/C [24]: 2.31%
- viability, T/C [25]: 5.23%
- viability, T/C [26]: 4.49%
- viability, T/C [27]: 2.87%
- viability, T/C [28]: 4.14%
- viability, T/C [29]: 3.49%
- viability, T/C [30]: 0.54%
- viability, T/C [31]: 1.44%
- viability, T/C [32]: 1.29%
- viability, T/C [33]: 1.4%
- viability, T/C [34]: 2.23%
- viability, T/C [35]: 2.81%
- viability, T/C [36]: 0.35%

SMILES: CC(C)n1c(=O)n(C)c2cnc3cc(F)c(-c4ccc(OCCCN5CCCCC5)nc4)cc3c21 + Cc1cnc(CNC(=O)c2c(=O)c3ccc(N4CCCN(C)CC4)nc3n3c2sc2ccccc23)cn1
- pIC50 (second compound 0.0316 µM): > 7.50
- pIC50 (second compound 0.1 µM): > 7.50
- pIC50 (second compound 0.316 µM): > 7.50
- pIC50 (second compound 1 µM): > 7.50
- pIC50 (second compound 3.16 µM): > 7.50
- pIC50 (second compound 10 µM): > 7.50
- viability, T/C [1]: 28.4%
- viability, T/C [2]: 20.2%
- viability, T/C [3]: 26.6%
- viability, T/C [4]: 39.4%
- viability, T/C [5]: 46.5%
- viability, T/C [6]: 49.1%
- viability, T/C [7]: 15%
- viability, T/C [8]: 16.6%
- viability, T/C [9]: 24%
- viability, T/C [10]: 18.1%
- viability, T/C [11]: 31.6%
- viability, T/C [12]: 30.8%
- viability, T/C [13]: 13.3%
- viability, T/C [14]: 13.1%
- viability, T/C [15]: 12.6%
- viability, T/C [16]: 16.9%
- viability, T/C [17]: 14.6%
- viability, T/C [18]: 19.5%
- viability, T/C [19]: 18.1%
- viability, T/C [20]: 16.6%
- viability, T/C [21]: 16.4%
- viability, T/C [22]: 18%
- viability, T/C [23]: 23.2%
- viability, T/C [24]: 12.4%
- viability, T/C [25]: 21.9%
- viability, T/C [26]: 23.4%
- viability, T/C [27]: 21.7%
- viability, T/C [28]: 21.8%
- viability, T/C [29]: 24.8%
- viability, T/C [30]: 9.39%
- viability, T/C [31]: 0.15%
- viability, T/C [32]: 0.19%
- viability, T/C [33]: 0.2%
- viability, T/C [34]: 0.17%
- viability, T/C [35]: 0.16%
- viability, T/C [36]: 0.16%

SMILES: CC1COCCN1c1cc(C2(O)CC3CCC(C2)O3)c2cnn(-c3ccn[nH]3)c2n1 (stereo unspecified) + Cc1cnc(CNC(=O)c2c(=O)c3ccc(N4CCCN(C)CC4)nc3n3c2sc2ccccc23)cn1
- pIC50 (second compound 0.0316 µM): > 7.50
- pIC50 (second compound 0.1 µM): > 7.50
- pIC50 (second compound 0.316 µM): > 7.50
- pIC50 (second compound 1 µM): > 7.50
- pIC50 (second compound 3.16 µM): > 7.50
- pIC50 (second compound 10 µM): > 7.50
- viability, T/C [1]: 5.92%
- viability, T/C [2]: 3.36%
- viability, T/C [3]: 3.06%
- viability, T/C [4]: 4.49%
- viability, T/C [5]: 5.92%
- viability, T/C [6]: 7.8%
- viability, T/C [7]: 5.95%
- viability, T/C [8]: 3.36%
- viability, T/C [9]: 3.12%
- viability, T/C [10]: 4.44%
- viability, T/C [11]: 6.08%
- viability, T/C [12]: 7%
- viability, T/C [13]: 4.59%
- viability, T/C [14]: 4.72%
- viability, T/C [15]: 4.92%
- viability, T/C [16]: 5.25%
- viability, T/C [17]: 7.22%
- viability, T/C [18]: 7.55%
- viability, T/C [19]: 6.13%
- viability, T/C [20]: 4.5%
- viability, T/C [21]: 5.8%
- viability, T/C [22]: 6.61%
- viability, T/C [23]: 7.78%
- viability, T/C [24]: 6.44%
- viability, T/C [25]: 2.58%
- viability, T/C [26]: 3.35%
- viability, T/C [27]: 4.73%
- viability, T/C [28]: 4.41%
- viability, T/C [29]: 2.5%
- viability, T/C [30]: 1.93%
- viability, T/C [31]: 0.03%
- viability, T/C [32]: 0.09%
- viability, T/C [33]: 0.14%
- viability, T/C [34]: 0.07%
- viability, T/C [35]: 0.12%
- viability, T/C [36]: 0.12%
